Measurements: patent US20200261388A1, “USE AND METHOD OF L-ASPARTIC ACID beta-HYDROXAMATE IN PREPARING DRUGS FOR INHIBITING CHOROIDAL NEOVASCULARIZATION” (WENZHOU MEDICAL UNIVERSITY, priority 2019, published 2020)

Legend:
[1] = system: primary RPEs induced with TNFα; assay: Production of VEGF and MCP-1 by TNFα-induced primary RPE (ELISA, co-culture with J774A.1); type: cell-based; details: L-ABH 0.125 mM pre-treatment 1.5 h, then TNFα 500 unit/ml 12 h
Description: (§1) Using animal models of exAMD, in C57/B6 mice, fundus was irradiated with Krypton red laser (interval at 0.05 s, duration of 0.07 s, and power at 240 mW) to make CNV mice models. A serine racemase competitive inhibitor, L-aspartic acid β-hydroxamate (L-ABH), was injected intravenously at a dosage of 6 mg/kg at the day before laser, and at a dosage of 3 mg/kg at the third day after laser. At the seventh day after laser injury, stretched preparation was performed with choroid/retinal pigment epithelial cells (RPEs), which were stained with metaagglutinin GS-IB4 coupled with Alexa Fluor 594, and the volume of CNV was analyzed. And primary RPEs were utilized in vitro to study the inhibition of L-ABH on the production of VEGF and MCP-1 by RPEs which was induced with TNFα. Macrophages were co-cultured with RPEs to study L-ABH about pre-treating RPEs and inhibiting the migration of macrophages.
Primary RPE was cultured in DMEM/F12 plus 20% FBS to a density of 70%, at which it was exchanged for DMEM/F12 plus 1% FBS, L-ABH (0.0625-0.25 mM), or after the control pre-treatment for 1.5 hours, it was exchanged for TNFα (500 unit/ml) to treat for 12 h, the supernatants were collected, and L-serine and D-serine in the supernatants were detected by high performance liquid chromatography. There were six samples in each group. […]

[2] = system: macrophages J774A.1; assay: Migration of macrophages J774A.1 co-cultured with TNFα-treated RPE; type: cell-based; details: L-ABH 0.125 mM pre-treatment of RPE 1.5 h, then TNFα 12 h; co-culture 12 h
Description: as §1
The results of L-ABH inhibiting the migration of macrophages under the induction of RPE treated with TNFα are shown in FIGS. 5A-5D, in which RPE was co-cultured with macrophages J774A.1 for 12 h. […] For each culture dish, nine visual fields were randomly selected under the light microscope to be counted, with the statistical analysis seen in FIG. 5D. **p<0.01, compared with the control group, # p<0.05, compared with TNFα treatment group.

[3] = system: primary RPEs; assay: L-serine and D-serine in supernatants of primary RPE by HPLC; type: cell-based; details: L-ABH 0.0625-0.25 mM pre-treatment 1.5 h, then TNFα 500 unit/ml 12 h; supernatant
Description: Primary RPE was cultured in DMEM/F12 plus 20% FBS to a density of 70%, at which it was exchanged for DMEM/F12 plus 1% FBS, L-ABH (0.0625-0.25 mM), or after the control pre-treatment for 1.5 hours, it was exchanged for TNFα (500 unit/ml) to treat for 12 h, the supernatants were collected, and L-serine and D-serine in the supernatants were detected by high performance liquid chromatography. There were six samples in each group. The contents of L-serine and D-serine are shown with box charts in FIG. 4A, with **p<0.01, *p<0.05 showing that there was significant difference of D-serine between the treatment group and the control group. The ratio of L/D-serine was shown in FIG. 4B, with **p<0.01, *p<0.05 showing that there was significant difference between the control groups. In FIG. 4C-FIG. 4E, primary RPEs were co-cultured with macrophages J774A.1, primary RPEs were pretreated with L-ABH (0.125 mM) for 1.5 h, then treated with TNFα (500 unit/ml) for 12 h, with J774A.1 being cultured in the upper layer at the same time for 12 h, after which the supernatants cultured with RPEs were collected, and an enzyme-linked immunosorbent assay was used to detect the productions of MCP-1 (C), VEGF (D), and NO (E). (There were 7 samples for each group). In FIG. 4C, ***p<0.001, compared with the control group, **p<0.01, compared with TNFα treatment group. […]

[4] = system: retinal functions (B-wave of rod and cone cells); assay: Electroretinographic analysis of retinal function after intravenous L-ABH; type: in vivo, C57BL/6J male mice; details: 6 mg/kg i.v., one day after injection, vs saline injection group
Description: The effect of intravenous injection of L-ABH on retinal functions is shown in FIGS. 2A-2D, in which C57BL/6J male mice were intravenously injected 6 mg/kg of L-ABH at an age of two months, one day after the injection, an electrographic analysis was performed on the retina. The amplitudes of B-wave in dark and bright views are shown in FIG. 2A, FIG. 2C, and FIG. 2B respectively, and the average values of which are analyzed by histograms in FIG. 2D.

[5] = system: laser-induced choroidal neovascularization; assay: Laser-induced choroidal neovascularization (CNV) mouse model, intravenous L-ABH; type: in vivo, C57/B6 mice; details: i.v. 6 mg/kg the day before laser and 3 mg/kg third day after laser; analysed day 7 after laser; p=0.001
Description: as §1
The results of inhibiting the laser-induced choroidal neovascularization by intravenously injecting L-ABH are shown in FIGS. 1A-1E, wherein FIG. 1A is CNV produced by laser in 2-month-old wild-type mice. Injection of saline was used as the control group (Con, B); at the day before laser, L-ABH was injected intravenously (2 mg/kg), and 1 mg/kg (C) was injected 3 days after laser; or at the day before laser, L-ABH was injected intravenously (6 mg/kg), and 3 mg/kg (D) was injected 3 days after laser. […]

[6] = system: visual functions; parameters: species or system C57BL/6j male mice; details: mouse, in vivo
Description: The effect of intravenous injection of L-ABH on visual functions are shown in FIGS. 3A-3C, in which C57BL/6j male mice were intravenously injected 6 mg/kg of L-ABH at an age of two months, one day after the injection, visual behaviors were analyzed.

## N[C@@H](CC(=O)NO)C(=O)O [L-ABH, L-aspartic acid β-hydroxamate]
[1]
  production of MCP-1 by RPE induced with TNFα: significantly decreasing the production
  production of VEGF by RPE induced with TNFα: significantly decreasing the production
[2]
  macrophage migration mediated with RPE induced with TNFα: significantly inhibited macrophage migration
[3]
  production of D-serine in primary RPEs: decreased the production of D-serine
  ratio of L-serine/D-serine: increased the ratio of L-serine/D-serine
[4]
  amplitude of B-wave from cone cells in a bright view: no differences
  amplitude of B-wave from rod cells in a dark view: no differences
[5]
  volume of CNV relative to saline control group: 55%
[6]
  retention time of mice in the black box: no difference
